Test results taken from patent US9670227B2, “Thienopyrimidine derivatives, a process for their preparation and pharmaceutical compositions containing them” (LES LABORATOIRES SERVIER, priority 2013, dated 2017).
Like-named read-outs stand apart in the source and are kept apart here.

Key:
[1] = tested on: H929 multiple myeloma tumour line; assay: In vitro cytotoxicity, Microculture Tetrazolium Assay; type: cell-based; details: H929 cells, 48 hours exposure, MTT, read-out: IC50 (μM) MTT H929
Method: The cytotoxicity studies were carried out on the H929 multiple myeloma tumour line.
The cells are distributed onto microplates and exposed to the test compounds for 48 hours.

Mcl-1 protein = Mcl-1 protein (UniProtKB primary accession number: Q07820) (Homo sapiens, UniProt Q07820); assay: Inhibition of Mcl-1 by fluorescence polarisation, Method 1; type: binding; details: fluorescence polarisation test; Method 2 values are underlined in the patent (underlining not visible here); read-out: IC50 (M) Mcl-1 FP
Mcl-1 protein, sequence (Q07820 whole entry): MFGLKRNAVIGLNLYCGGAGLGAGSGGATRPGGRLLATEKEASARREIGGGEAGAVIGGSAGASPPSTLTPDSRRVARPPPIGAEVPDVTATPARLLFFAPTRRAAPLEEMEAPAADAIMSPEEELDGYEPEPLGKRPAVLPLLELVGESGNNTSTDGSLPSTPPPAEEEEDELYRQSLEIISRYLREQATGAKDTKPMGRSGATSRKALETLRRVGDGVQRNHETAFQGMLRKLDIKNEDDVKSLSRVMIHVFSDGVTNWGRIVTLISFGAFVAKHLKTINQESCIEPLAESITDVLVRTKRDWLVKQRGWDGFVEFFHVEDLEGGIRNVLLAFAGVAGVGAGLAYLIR
In short: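 FP readout of relative binding potency. Mcl-1 5 nM final, fluorescein-labelled ligand 1 nM final; buffer 10 mM HEPES, 150 mM NaCl, 0.05% Tween 20, pH 7.4; 11-pt dilution series, 5% DMSO final.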

| SMILES | IC50 (Mcl-1 protein) | IC50 ([1]; Homo sapiens, NCI-H929, 48 h) | IC50 [1] |
| --- | --- | --- | --- |
| Cc1c(-c2c(-c3ccc(F)cc3)sc3ncnc(OC(Cc4ccccc4OCc4ccnc(OCC(F)(F)F)n4)C(=O)O)c23)ccc(OCCN(C)C)c1Cl [Example 131, (2R)-2-{[(5Sa)-5-{3-chloro-4-[2-(dimethylamino)ethoxy]-2-methylphenyl}-6-(4-fluorophenyl)thieno[2,3-d]pyrimidin-4-yl]oxy}-3-(2-{[2-(2,2,2-trifluoroethoxy)pyrimidin-4-yl]methoxy}phenyl)propanoic acid] | 7.9e-09 M | 0.039 µM |  |
| Cc1c(-c2c(-c3ccc(F)cc3)sc3ncnc(OC(Cc4ccccc4OCc4ccnn4CC(F)(F)F)C(=O)O)c23)ccc(OCCN(C)C)c1Cl [Example 132, (2R)-2-{[(5Sa)-5-{3-chloro-4-[2-(dimethylamino)ethoxy]-2-methylphenyl}-6-(4-fluorophenyl)thieno[2,3-d]pyrimidin-4-yl]oxy}-3-(2-{[1-(2,2,2-trifluoroethyl)-1H-pyrazol-5-yl]methoxy}phenyl)propanoic acid] | 4.8e-09 M | 0.102 µM |  |
| CCCCn1nccc1COc1ccccc1CC(Oc1ncnc2sc(-c3ccc(F)cc3)c(-c3ccc(OCCN(C)C)c(Cl)c3C)c12)C(=O)O [Example 133, (2R)-3-{2-[(1-butyl-1H-pyrazol-5-yl)methoxy]phenyl}-2-{[(5Sa)-5-{3-chloro-4-[2-(dimethylamino)ethoxy]-2-methylphenyl}-6-(4-fluorophenyl)thieno[2,3-d]pyrimidin-4-yl]oxy}propanoic acid] | 3.4e-09 M | 0.099 µM |  |
| Cc1cc(-c2nccc(COc3ccccc3CC(Oc3ncnc4sc(-c5ccc(F)cc5)c(-c5ccc(OCCN(C)C)c(Cl)c5C)c34)C(=O)O)n2)ccn1 [Example 136, (2R)-2-{[(5Sa)-5-{3-chloro-4-[2-(dimethylamino)ethoxy]-2-methylphenyl}-6-(4-fluorophenyl)thieno[2,3-d]pyrimidin-4-yl]oxy}-3-(2-{[2-(2-methylpyridin-4-yl)pyrimidin-4-yl]methoxy}phenyl)propanoic acid] | 7.7e-09 M | 0.015 µM |  |
| Cc1c(-c2c(-c3ccc(F)cc3)sc3ncnc(OC(Cc4ccccc4OCc4cnccn4)C(=O)O)c23)ccc(OCC2CCN(C)C2)c1Cl [Example 139, (2R)-2-{[(5Sa)-5-(3-chloro-2-methyl-4-{[(3R)-1-methylpyrrolidin-3-yl]methoxy}phenyl)-6-(4-fluorophenyl)thieno[2,3-d]pyrimidin-4-yl]oxy}-3-[2-(pyrazin-2-ylmethoxy)phenyl]propanoic acid] | 8.5e-08 M |  | 0.636 µM |
| Cc1c(-c2c(-c3ccc(F)cc3)sc3ncnc(OC(Cc4ccccc4OCc4cnccn4)C(=O)O)c23)ccc(OCC2CCN(C)C2)c1Cl [Example 140, (2R)-2-{[(5Sa)-5-(3-chloro-2-methyl-4-{[(3S)-1-methylpyrrolidin-3-yl]methoxy}phenyl)-6-(4-fluorophenyl)thieno[2,3-d]pyrimidin-4-yl]oxy}-3-[2-(pyrazin-2-ylmethoxy)phenyl]propanoic acid] | 2.2e-08 M |  | 0.205 µM |
| Cc1c(-c2c(-c3ccc(F)cc3)sc3ncnc(O[C@H](Cc4ccccc4OCc4cnccn4)C(=O)O)c23)ccc(OCC2CCCCN(C)C2)c1Cl (stereo partly drawn) [Example 144, (2R)-2-{[(5Sa)-5-{3-chloro-2-methyl-4-[(1-methylazepan-3-yl)methoxy]phenyl}-6-(4-fluorophenyl)thieno[2,3-d]pyrimidin-4-yl]oxy}-3-[2-(pyrazin-2-ylmethoxy)phenyl]propanoic acid] | 1.6e-08 M |  | 1.6 µM |
| CNC(=O)COc1ccccc1CC(Oc1ncnc2sc(-c3ccc(F)o3)c(-c3ccc(OCCN4CCN(C)CC4)c(Cl)c3C)c12)C(=O)O [Example 151, (2R)-2-{[(5Sa)-5-{3-chloro-2-methyl-4-[2-(4-methylpiperazin-1-yl)ethoxy]phenyl}-6-(5-fluorofuran-2-yl)thieno[2,3-d]pyrimidin-4-yl]oxy}-3-{2-[2-(methylamino)-2-oxoethoxy]phenyl}propanoic acid] | 3.6e-09 M | 0.309 µM |  |
| Cc1c(-c2c(-c3ccc(F)o3)sc3ncnc(OC(Cc4ccccc4OCC(=O)NC4CCCC4)C(=O)O)c23)ccc(OCCN2CCN(C)CC2)c1Cl [Example 152, (2R)-2-{[(5Sa)-5-{3-chloro-2-methyl-4-[2-(4-methylpiperazin-1-yl)ethoxy]phenyl}-6-(5-fluorofuran-2-yl)thieno[2,3-d]pyrimidin-4-yl]oxy}-3-{2-[2-(cyclopentylamino)-2-oxoethoxy]phenyl}propanoic acid] | 9.9e-09 M | 0.19 µM |  |
| Cc1c(-c2c(-c3ccc(F)o3)sc3ncnc(OC(Cc4ccccc4OCC(=O)NCc4ccccc4)C(=O)O)c23)ccc(OCCN2CCN(C)CC2)c1Cl [Example 153, (2R)-3-{2-[2-(benzylamino)-2-oxoethoxy]phenyl}-2-{[(5Sa)-5-{3-chloro-2-methyl-4-[2-(4-methylpiperazin-1-yl)ethoxy]phenyl}-6-(5-fluorofuran-2-yl)thieno[2,3-d]pyrimidin-4-yl]oxy}propanoic acid] | 5e-09 M | 0.146 µM |  |
| CCCNC(=O)COc1ccccc1CC(Oc1ncnc2sc(-c3ccc(F)o3)c(-c3ccc(OCCN4CCN(C)CC4)c(Cl)c3C)c12)C(=O)O [Example 154, (2R)-2-{[(5Sa)-5-{3-chloro-2-methyl-4-[2-(4-methylpiperazin-1-yl)ethoxy]phenyl}-6-(5-fluorofuran-2-yl)thieno[2,3-d]pyrimidin-4-yl]oxy}-3-{2-[2-oxo-2-(propylamino)ethoxy]phenyl}propanoic acid] | 6.6e-09 M | 0.1 µM |  |
| Cc1c(-c2c(-c3ccc(F)o3)sc3ncnc(OC(Cc4ccccc4OCC(=O)NCCc4ccccc4)C(=O)O)c23)ccc(OCCN2CCN(C)CC2)c1Cl [Example 155, (2R)-2-{[(5Sa)-5-{3-chloro-2-methyl-4-[2-(4-methylpiperazin-1-yl)ethoxy]phenyl}-6-(5-fluorofuran-2-yl)thieno[2,3-d]pyrimidin-4-yl]oxy}-3-(2-{2-oxo-2-[(2-phenylethyl)amino]ethoxy}phenyl)propanoic acid] | 7.6e-09 M | 0.189 µM |  |

Second part, led by results:

| IC50 (Mcl-1 protein) | SMILES | IC50 ([1]; Homo sapiens, NCI-H929, 48 h) | IC50 [1] |
| --- | --- | --- | --- |
| 3.4e-09 M | CCOc1nccc(COc2ccccc2CC(Oc2ncnc3sc(-c4ccc(F)cc4)c(-c4ccc(OCCN(C)C)c(Cl)c4C)c23)C(=O)O)n1 [Example 130, (2R)-2-{[(5Sa)-5-{3-chloro-4-[2-(dimethylamino)ethoxy]-2-methylphenyl}-6-(4-fluorophenyl)thieno[2,3-d]pyrimidin-4-yl]oxy}-3-{2-[(2-ethoxypyrimidin-4-yl)methoxy]phenyl}propanoic acid] | 0.065 µM |  |
| 1.3e-08 M | Cc1c(-c2c(-c3ccc(F)cc3)sc3ncnc(OC(Cc4ccccc4OCc4cnccn4)C(=O)O)c23)ccc(OCCN(C)C)c1Cl [Example 134, (2R)-2-{[(5Sa)-5-{3-chloro-4-[2-(dimethylamino)ethoxy]-2-methylphenyl}-6-(4-fluorophenyl)thieno[2,3-d]pyrimidin-4-yl]oxy}-3-[2-(pyrazin-2-ylmethoxy)phenyl]propanoic acid] | 0.193 µM |  |
| 5.5e-09 M | Cc1cnccc1-c1nccc(COc2ccccc2CC(Oc2ncnc3sc(-c4ccc(F)cc4)c(-c4ccc(OCCN(C)C)c(Cl)c4C)c23)C(=O)O)n1 [Example 137, (2R)-2-{[(5Sa)-5-{3-chloro-4-[2-(dimethylamino)ethoxy]-2-methylphenyl}-6-(4-fluorophenyl)thieno[2,3-d]pyrimidin-4-yl]oxy}-3-(2-{[2-(3-methylpyridin-4-yl)pyrimidin-4-yl]methoxy}phenyl)propanoic acid] | 0.007 µM |  |
| 2.6e-08 M | Cc1c(-c2c(-c3ccc(F)cc3)sc3ncnc(OC(Cc4ccccc4OCc4cnccn4)C(=O)O)c23)ccc(OCC2CCCN2C)c1Cl [Example 143, (2R)-2-{[(5Sa)-5-{3-chloro-2-methyl-4-[(1-methylpyrrolidin-2-yl)methoxy]phenyl}-6-(4-fluorophenyl)thieno[2,3-d]pyrimidin-4-yl]oxy}-3-[2-(pyrazin-2-ylmethoxy)phenyl]propanoic acid] | 1.61 µM |  |
| 1.1e-08 M | Cc1c(-c2c(-c3ccc(F)cc3)sc3ncnc(OC(Cc4ccccc4OCc4cnccn4)C(=O)O)c23)ccc(OCC2CCN(C)C2)c1Cl [Example 145, (2R)-2-{[(5Sa)-5-{3-chloro-2-methyl-4-[(1-methylpyrrolidin-3-yl)methoxy]phenyl}-6-(4-fluorophenyl)thieno[2,3-d]pyrimidin-4-yl]oxy}-3-[2-(pyrazin-2-ylmethoxy)phenyl]propanoic acid] |  | 0.293 µM |
| 3.5e-08 M | Cc1c(-c2c(-c3ccc(F)cc3)sc3ncnc(OC(Cc4ccccc4OCc4cnccn4)C(=O)O)c23)ccc(OCCCC2CCCN2C)c1Cl [Example 146, (2R)-2-{[(5Sa)-5-{3-chloro-2-methyl-4-[3-(1-methylpyrrolidin-2-yl)propoxy]phenyl}-6-(4-fluorophenyl)thieno[2,3-d]pyrimidin-4-yl]oxy}-3-[2-(pyrazin-2-ylmethoxy)phenyl]propanoic acid] | 1.16 µM |  |
| 2.4e-08 M | Cc1c(-c2c(-c3ccc(F)cc3)sc3ncnc(OC(Cc4ccccc4OCc4cnccn4)C(=O)O)c23)ccc(OCCCN(C)C)c1Cl [Example 147, (2R)-2-{[(5Sa)-5-{3-chloro-4-[3-(dimethylamino)propoxy]-2-methylphenyl}-6-(4-fluorophenyl)thieno[2,3-d]pyrimidin-4-yl]oxy}-3-[2-(pyrazin-2-ylmethoxy)phenyl]propanoic acid] | 0.787 µM |  |
